Results on six molecules are retold here after patent US6737383B1, “Herbicidal oxadiazolidines” (priority 1999, dated 2004).

The test system of one assay is pigweed. As to the kind of experiment: Test B pre/postemergence pigweed. The class given is in vivo, Amaranthus retroflexus. Summed up: (§1)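 Test chemicals in a non-phytotoxic solvent mixture with surfactant were sprayed preemergence onto planted seeds and postemergence onto plants 2 to 18 cm tall (1- to 4-leaf stage). After twelve to sixteen days in a greenhouse, injury was visually rated against untreated controls from 0 (no effect) to 10 (complete control).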

Another assay relates to rape. As to the kind of experiment: Test B pre/postemergence rape. The class given is in vivo, Brassica napus. The gist of the method: as §1
Another assay deals with sugar beet. Kind of assay: Test B pre/postemergence sugar beet. The class given is in vivo, Beta vulgaris. Summed up:
as §1

[1] abbreviates: Postemergence, Rate 125 g/ha, scale 0 to 10, 0 is no effect, 10 is complete control.
The mark [2] stands for this setting: Preemergence, Rate 62 g/ha, scale of 0 to 10 where 0 is no effect and 10 is complete control.
The mark [3] stands for this setting: Preemergence, Rate 250 g/ha, scale of 0 to 10 where 0 is no effect and 10 is complete control.
[4] abbreviates: Preemergence, Rate 500 g/ha, scale of 0 to 10 where 0 is no effect and 10 is complete control.
[5] abbreviates: Rate 62 g/ha, Postemergence, scale 0 to 10 (0 no effect, 10 complete control).
The mark [6] stands for this setting: Rate 500 g/ha, Postemergence, scale 0 to 10, 0 no effect, 10 complete control.
Where [7] appears, read: Rate 62 g/ha, Postemergence, scale of 0 to 10 where 0 is no effect and 10 is complete control.
Where [8] appears, read: Preemergence, Rate 62 g/ha, scale 0 to 10 (0 no effect, 10 complete control).
Setting [9] is: Postemergence, Rate 250 g/ha, scale 0 to 10, 0 is no effect, 10 is complete control.

On to `Cc1c(-n2c(=O)on(C(=O)N(c3ccc(F)cc3F)C(C)C)c2=O)ccc2ccccc12` [Compound 337], for which the “Plant response rating, Redroot pigweed” value in the assay with pigweed (setting [1]) and in the assay with pigweed (setting [6]) was 0 each time. In addition, the “Redroot pigweed plant response rating” value with pigweed (setting [2]), in the assay with pigweed (setting [3]), with pigweed (setting [4]) and in the assay on pigweed (setting [5]) was 0 in each case. In addition, the “Redroot pigweed plant response rating (0 to 10 scale)” value in the assay with pigweed (Preemergence, Rate 125 g/ha) is reported as 0. Besides, the “Plant response rating, Rape” value in the assay on rape (setting [1]) and with rape (setting [6]) was 0 throughout. For the same molecule, the “Rape plant response rating” value in the assay with rape (setting [2]), with rape (setting [3]), in the assay on rape (setting [4]) and in the assay with rape (setting [5]) was 0 in each case. For the same molecule, the “Rape plant response rating (0 to 10 scale)” value with rape (Preemergence, Rate 125 g/ha) stood at 0. The “Plant response rating, Sugarbeets” value in the assay on sugar beet (setting [1]) and in the assay on sugar beet (setting [6]) was 0 in each case. Moreover, the “Sugarbeets plant response rating” value with sugar beet (setting [2]), in the assay on sugar beet (setting [3]), in the assay on sugar beet (setting [4]) and with sugar beet (setting [5]) was 0 throughout. Further, the “Sugarbeets plant response rating (0 to 10 scale)” value with sugar beet (Preemergence, Rate 125 g/ha) came to 0.
Consider `Cc1c(-n2c(=O)on(C(=O)N(c3ccc(F)cc3)C(C)C)c2=O)ccc2ccccc12` [Compound 338], for which the “Plant response rating, Redroot pigweed” value with pigweed (setting [1]) and in the assay on pigweed (setting [6]) was 0 throughout. Also, the “Redroot pigweed plant response rating” value with pigweed (setting [2]), with pigweed (setting [3]), in the assay on pigweed (setting [4]) and with pigweed (setting [5]) was 0 in each case. The “Redroot pigweed plant response rating (0 to 10 scale)” value with pigweed (Preemergence, Rate 125 g/ha) is 0. The “Plant response rating, Rape” value in the assay with rape (setting [1]) and in the assay on rape (setting [6]) was 0 each time. For the same molecule, the “Rape plant response rating” value with rape (setting [2]), with rape (setting [3]), with rape (setting [4]) and with rape (setting [5]) was 0 each time. The “Rape plant response rating (0 to 10 scale)” value in the assay on rape (Preemergence, Rate 125 g/ha) was 0. Besides, the “Plant response rating, Sugarbeets” value with sugar beet (setting [1]) and with sugar beet (setting [6]) was 0 throughout. Moreover, the “Sugarbeets plant response rating” value in the assay with sugar beet (setting [2]), in the assay with sugar beet (setting [3]), in the assay on sugar beet (setting [4]) and in the assay on sugar beet (setting [5]) was 0 in each case. Moreover, the “Sugarbeets plant response rating (0 to 10 scale)” value in the assay with sugar beet (Preemergence, Rate 125 g/ha) was 0.
For `CC(C)N(C(=O)n1oc(=O)n(C2CCCCCC2)c1=O)c1ccc(Cl)cc1` [Compound 339], the “Plant response rating, Redroot pigweed” value in the assay on pigweed (setting [1]) is 2; with pigweed (setting [6]), 6. Moreover, the “Redroot pigweed plant response rating” value with pigweed (setting [2]), in the assay on pigweed (setting [3]), in the assay with pigweed (setting [4]) and with pigweed (setting [7]) was 0 throughout. Also, the “Redroot pigweed plant response rating (0 to 10 scale)” value in the assay on pigweed (Preemergence, Rate 125 g/ha) stood at 0. The “Plant response rating, Rape” value in the assay with rape (setting [1]) is reported as 1; in the assay on rape (setting [6]), 5. Moreover, the “Rape plant response rating” value in the assay on rape (setting [2]), in the assay with rape (setting [3]), in the assay on rape (setting [4]) and with rape (setting [7]) was 0 each time. The “Rape plant response rating (0 to 10 scale)” value in the assay on rape (Preemergence, Rate 125 g/ha) is given as 0. Besides, the “Plant response rating, Sugarbeets” value with sugar beet (setting [1]) and with sugar beet (setting [6]) was 0 in each case. In addition, the “Sugarbeets plant response rating” value in the assay with sugar beet (setting [2]), with sugar beet (setting [3]), in the assay with sugar beet (setting [4]) and in the assay on sugar beet (setting [7]) was 0 throughout. Besides, the “Sugarbeets plant response rating (0 to 10 scale)” value with sugar beet (Preemergence, Rate 125 g/ha) is 0.
For the molecule `CC(C)N(C(=O)n1oc(=O)n(C2CCC2)c1=O)c1ccccc1` [Compound 348], the figures for the “Plant response rating, Redroot pigweed” value in the assay on pigweed (setting [1]), with pigweed (setting [8]) and in the assay with pigweed (setting [6]) were 0, 0 and 5, respectively. Moreover, in the assay with pigweed (Preemergence, Rate 125 g/ha), the “Redroot pigweed plant response rating (0 to 10 scale)” value was 0. Further, the “Redroot pigweed plant response rating” value in the assay with pigweed (setting [3]) was 10; in the assay with pigweed (setting [4]), 10; in the assay with pigweed (setting [7]), 0. The results for the “Plant response rating, Rape” value in the assay on rape (setting [1]), in the assay on rape (setting [8]) and with rape (setting [6]) were 0, 0 and 5, respectively. Moreover, the “Rape plant response rating (0 to 10 scale)” value with rape (Preemergence, Rate 125 g/ha) stood at 0. Besides, the “Rape plant response rating” value worked out at 2 in the assay with rape (setting [3]), 7 in the assay on rape (setting [4]) and 0 in the assay with rape (setting [7]). Moreover, the figures for the “Plant response rating, Sugarbeets” value in the assay with sugar beet (setting [1]), with sugar beet (setting [8]) and in the assay on sugar beet (setting [6]) were 0, 0 and 3, respectively. The “Sugarbeets plant response rating (0 to 10 scale)” value in the assay on sugar beet (Preemergence, Rate 125 g/ha) is 0. For the same molecule, the “Sugarbeets plant response rating” value with sugar beet (setting [3]) was 3; in the assay with sugar beet (setting [4]) it was 6; in the assay on sugar beet (setting [7]) it was 0.
Consider `CC(C)N(C(=O)n1oc(=O)n(C2CCC2)c1=O)c1ccc(Cl)cc1` [Compound 349], for which the “Plant response rating, Redroot pigweed” value in the assay with pigweed (setting [1]) was determined as 2; in the assay on pigweed (setting [8]), 0; with pigweed (setting [6]) it was 4. The “Redroot pigweed plant response rating (0 to 10 scale)” value with pigweed (Preemergence, Rate 125 g/ha) is on record as 0. In addition, the “Redroot pigweed plant response rating” value is 2 with pigweed (setting [3]), 7 in the assay on pigweed (setting [4]) and 0 with pigweed (setting [7]). Besides, the “Plant response rating, Rape” value in the assay with rape (setting [1]), in the assay on rape (setting [8]) and with rape (setting [6]) was 0 each time. For the same molecule, the “Rape plant response rating (0 to 10 scale)” value in the assay with rape (Preemergence, Rate 125 g/ha) is 0. Moreover, the “Rape plant response rating” value in the assay with rape (setting [3]) was found to be 0; with rape (setting [4]), 4; with rape (setting [7]), 0. Besides, the “Plant response rating, Sugarbeets” value in the assay on sugar beet (setting [1]), in the assay with sugar beet (setting [8]) and in the assay on sugar beet (setting [6]) was 0 each time. For the same molecule, the “Sugarbeets plant response rating (0 to 10 scale)” value in the assay with sugar beet (Preemergence, Rate 125 g/ha) came out at 2. In addition, the “Sugarbeets plant response rating” value in the assay on sugar beet (setting [3]) is recorded as 4; in the assay with sugar beet (setting [4]) it was 4; with sugar beet (setting [7]) it was 0.
For `Cc1nsc(Cl)c1Cn1c(=O)on(C(=O)N(c2ccc(F)cc2)C(C)C)c1=O` [Compound 373], the “Plant response rating, Redroot pigweed” value was found to be 3 with pigweed (setting [1]), 4 with pigweed (setting [9]), 0 in the assay on pigweed (setting [8]) and 6 with pigweed (setting [6]). For the same molecule, in the assay on pigweed (Preemergence, Rate 125 g/ha), the “Redroot pigweed plant response rating (0 to 10 scale)” value is listed as 3. The results for the “Redroot pigweed plant response rating” value with pigweed (setting [3]), in the assay on pigweed (setting [4]) and with pigweed (setting [7]) were 7, 10 and 2, respectively. Moreover, the “Plant response rating, Rape” value was 1 in the assay on rape (setting [1]), 2 in the assay on rape (setting [9]), 0 in the assay on rape (setting [8]) and 5 in the assay with rape (setting [6]). Also, the “Rape plant response rating (0 to 10 scale)” value in the assay with rape (Preemergence, Rate 125 g/ha) came out at 0. Moreover, the “Rape plant response rating” value with rape (setting [3]) and with rape (setting [7]) was 0 throughout. In addition, the “Plant response rating, Sugarbeets” value with sugar beet (setting [1]) came out at 0; in the assay on sugar beet (setting [9]), 1; with sugar beet (setting [8]), 0; in the assay on sugar beet (setting [6]), 4. For the same molecule, the “Sugarbeets plant response rating (0 to 10 scale)” value with sugar beet (Preemergence, Rate 125 g/ha) was determined as 0. Besides, the results for the “Sugarbeets plant response rating” value in the assay with sugar beet (setting [3]), with sugar beet (setting [4]) and in the assay with sugar beet (setting [7]) were 4, 7 and 0, respectively.
